Measurements as given in US20220193209A1, “COMPOSITIONS AND METHODS FOR REACTIVATING LATENT IMMUNODEFICIENCY VIRUS AND/OR TREATING IMMUNODEFICIENCY VIRUS INFECTION” (The J. David Gladstone institutes, a testamentary trust …, priority 2019, published 2022).

What was measured:
[1] = biological target: Smyd2 (Homo sapiens, UniProt Q9NRG4); conditions: SMYD2, substrate competitive; cited from earlier work
[2] = system: latent HIV-1 provirus in J-Lat cells; assay: HIV-GFP reactivation in J-Lat cell lines (RT-qPCR, FACS); assay type: cell-based; conditions: for HIV-1 reactivation (HIV-GFP): ER stress inducers, 24, 48 and 72 h; for effect on TNFα-mediated HIV reactivation: with 10 ng/mL TNFα (24 h); for effect on AS1842856-induced HIV reactivation: with 1000 nM AS1842856 (72 h)
Protocol: Total RNA from samples was extracted using the Direct-zol RNA kit (R2060; Zymogen). cDNA was generated using 500 ng for CD4^+ T cells or 1000 ng of total RNA for J-Lats with Superscript III Reverse transcription (18080-044; ThermoFisher) and oligo(dT) (18418-012; ThermoFisher). Quantitative RT-PCR was carried out using Maxima SYBR Green qPCR Master Mix (Thermo Scientific) on SDS 2.4 software (Applied Biosystems) in a total volume of 12 μL. The SYBR green qPCR reactions contained 5 μl of 2× Maxima SYBR green/Rox qPCR Master Mix (K0221; ThermoFisher), 5 μl of diluted cDNA, and 1 nmol of both forward and reverse primers. The reactions were run using the following conditions: 50° C. for 2 min and 95° C. for 10 min, followed by 40 cycles of 95° C. for 5 s and 62° C. for 30 s. See Table 1 below for a qRT-PCR primer list. […] Dissociation curve analysis was performed after the end of the PCR to confirm the presence of a single and specific product. All qPCRs were independently repeated at least three times, averaged and compared using standard deviation (±SD).
The J-Lat clonal cell lines are Jurkat cells that contain a stably integrated, latent HIV-1 (HXB) Δenv provirus with a GFP reporter gene in place of the nef gene (Jordan, A. et al. EMBO J. 22, 1868-1877 (2003)). In this system, reactivation from established latency can be monitored through GFP expression.
HIV-GFP mRNA reactivation was assessed by RT-qPCR and normalized to RPL13A mRNA. Data represent average SD of three independent experiments. p-value relative to the control at each time point. FIG. 3, Panel B, depicts cell viability assessed by flow cytometry at 72 h of the same experiment as in A. Cell viability was measured by gating on both the live population at the forward scatter (FSC) and side scatter (SSC) plot and then the viable cells after staining with the viability dye. […] HIV-GFP reactivation (bars) and cell viability (dots) were analyzed by FACS. HIV-GFP reactivation is reported as a percentage of GFP-expressing cells (% GFP+ cells). Data represent average f SD of at least three independent experiments. FIG. 3, Panel D, depicts the same experiments as in FIG. 3, Panel C, but performed in different J-Lat cell lines 5A8, 6.3, 11.1 and 15.4. Data represent average f SD of at least three independent experiments. 10 ng/mL TNFα was used as control. […] Calculation of synergy for drug combinations using the Bliss independence model applied to the HIV-GFP reactivation measured as a percentage of GFP-expressing cells (% GFP+ cells).
Chromatin was prepared from J-Lat A2 and 5A8 cells, in which the LTR was stimulated by 1000 nM AS1842856 treatment, TNFα or which were left untreated/DMSO. […] HIV-GFP reactivation was analyzed by FACS and relativized to the control condition. […] Data represent average SD of 3-6 independent experiments. […] HIV-GFP reactivation was analyzed by FACS. […] HIV-GFP reactivation and cell viability were analyzed by FACS. Data were mean±SD of three independent experiments.

[3] = system: J-Lat cells; assay: Cell viability of J-Lat cells by flow cytometry; assay type: cell-based; conditions: J-Lat
Protocol: FIG. 3, Panel A, depicts results of treatment of a J-Lat cell line 5A8 with increasing concentrations (1-10000 nM) of AS1842856 for 24, 48 and 72 h. HIV-GFP mRNA reactivation was assessed by RT-qPCR and normalized to RPL13A mRNA. Data represent average SD of three independent experiments. p-value relative to the control at each time point. FIG. 3, Panel B, depicts cell viability assessed by flow cytometry at 72 h of the same experiment as in A. Cell viability was measured by gating on both the live population at the forward scatter (FSC) and side scatter (SSC) plot and then the viable cells after staining with the viability dye. FIG. 3, Panel C, depicts results of treatment of J-Lat cell lines A2 and A72 with increasing concentrations of AS1842856 for 24, 48 and 72 h. HIV-GFP reactivation (bars) and cell viability (dots) were analyzed by FACS. HIV-GFP reactivation is reported as a percentage of GFP-expressing cells (% GFP+ cells). Data represent average f SD of at least three independent experiments. FIG. 3, Panel D, depicts the same experiments as in FIG. 3, Panel C, but performed in different J-Lat cell lines 5A8, 6.3, 11.1 and 15.4. Data represent average f SD of at least three independent experiments. 10 ng/mL TNFα was used as control. FIG. 3 Panel E depicts results of treatment of J-Lat cell lines 5A8, 6.3, 11.1 and 15.4 for 72 h with increasing concentrations of both AS1842856 (Y-axis) and TNFα (X-axis) alone or in combination and analyzed by FACS. Calculation of synergy for drug combinations using the Bliss independence model applied to the HIV-GFP reactivation measured as a percentage of GFP-expressing cells (% GFP+ cells).
FIG. 10, Panels A-F depict results of a J-Lat cell line 5A8 treated with different concentrations of inhibitors. FIG. 10, Panel A, depicts results for a J-Lat cell line A58 that was treated with increasing concentrations of A-92 (GCN2 inhibitor) in combination with 1000 nM AS1842856 (72 h) or 10 ng/mL TNFα (24 h). HIV-GFP reactivation was analyzed by FACS and relativized to the control condition. Histogram plots of percent live cells for each drug treatment are shown. FIG. 10, Panel B, depicts the same experiment as in FIG. 10, Panel A, but cells were treated with increasing concentrations of PKR inhibitor (PKRi). Histogram plots representing viability are also shown. Data are represented by mean±SD of three different […]. […] FIG. 10, Panel D, depicts a J-Lat cell line A58 that was treated with increasing concentrations of Ionomycin (0.01, 0.1, 0.5, 1 μM) for 24, 48 and 72 hr. HIV-GFP reactivation and cell viability were analyzed by FACS. FIG. 10, Panel E, depicts a J-Lat cell line 5A8 that was treated for 72 h with increasing concentrations of both Fenretinide (Y-axis) and Ionomycin (X-axis) alone or in combination and analyzed by FACS. HIV-GFP reactivation is reported as a percentage of GFP-expressing cells (% GFP+ cells). FIG. 10, Panel F, depicts a J-Lat cell line 5A8 that was also treated for 72 h with increasing concentrations of both Thapsigargin (Y-axis) and Cyclosporin A (X-axis) alone or in combination and analyzed by FACS. HIV-GFP reactivation is again reported as a percentage of GFP-expressing cells (% GFP+ cells).

[4] = system: HIV LTR; assay: Chromatin immunoprecipitation (ChIP) at the HIV LTR in J-Lat cells; assay type: cell-based, HIV-1
Protocol: J-Lat A2 and A72 cells were treated with TNFα (10 ng/ml) for 18 h. Cells were fixed with 1% formaldehyde (v/v) in fixation buffer (1 mM EDTA, 0.5 mM EGTA, 50 mM Hepes, pH 8.0, 100 mM NaCl), and fixation was stopped after 10 min by addition of glycine to 125 mM. The cell membrane was lysed for 15 min on ice (5 mM Pipes, pH 8.0, 85 mM KCl, 0.5% NP40, protease inhibitors). After washing with nuclear swell buffer (25 mM HEPES, pH 7.5, 4 mM KCl, 1 Mm DTT, 0.5% NP-40, 0.5 mM PMSF) and micrococcal nuclease (MNase) digestion buffer (20 mM Tris pH 7.5, 2.5 mM CaCl2), 5 mM NaCl, 1 mM DTT, 0.5% NP-40), the pellet was resuspended in MNase buffer (15 mM Tris-HCl, pH 7.5, 5 mM MgCl2, 1 mM CaCl2), and 25 mM NaCl). Subsequently, samples were incubated with MNase (New England Biolabs) for 10 min at RT. The reaction was quenched with 0.5 M EDTA and incubated on ice for 5 min. Cells were lysed (1% SDS, 10 mM EDTA, 50 mM Tris-HCl, pH 8.1, protease inhibitors), and chromatin DNA was sheared to 200-1000-bp average size through sonication (Ultrasonic Processor CP-130, Cole Parmer). Cellular debris was pelleted, and the supernatant was recovered. Protein A/G Sepharose beads were blocked with single-stranded salmon sperm DNA and BSA, washed and resuspended in immunoprecipitation buffer. Blocked protein A/G Sepharose beads were added to the digested chromatin fractions and rotated at 4° C. for 2 h to preclear chromatin. Lysates were incubated overnight at 4° C. with 5 μg of FOXO1, RelA, histone H4, H4K20me1, H4K20me2, H4K20me3 antibodies, or IgG control. After incubation with protein A/G agarose beads for 2 h and washing three times with low salt buffer (0.1% SDS, 1% Triton X-100, 2 mM EDTA, 20 mM Tris-HCl, pH 8.1, 150 mM NaCl), one time with high salt buffer (0.1% SDS, 1% Triton X-100, 2 mM EDTA, 20 mM Tris-HCl, pH 8.1, 500 mM NaCl) and twice with TE-buffer (1 mM EDTA, 10 mM Tris-HCl, pH 8.1), chromatin was eluted and recovered with Agencourt AMPure XP beads (Beckman Coulter). Bound chromatin and input DNA were treated with RNase H (New England Biolabs) and Proteinase K (Sigma-Aldrich) at 37° C. for 30 min. Immunoprecipitated chromatin was quantified by real-time PCR using the Maxima SYBR Green qPCR Master Mix (Thermo Scientific) and the ABI 7700 Sequence Detection System (Applied Biosystems). The SDS 2.4 software (Applied Biosystems) was used for analysis. The specificity of each PCR reaction was confirmed by melting curve analysis using the Dissociation Curve software (Applied Biosystems). All chromatin immunoprecipitations and qPCRs were repeated at least three times, and representative results were shown.
Because ATF4 can be recruited to the HIV LTR (Jiang, G. et al. Downloaded from. MBio 8, 1518-1534 (2018)) and the related human T-cell leukemia virus type 1 (HTLV-1) Reddy, T. et al. Oncogene 14, 2785-2792 (1997)), chromatin immunoprecipitation (ChIP) experiments were performed to test whether ATF4 binds the HIV LTR in response to FOXO1 inhibition. While low levels of ATF4 bound HIV LTR chromatin in untreated J-Lat cells, its recruitment was 3-fold enriched after AS1842856 treatment (FIG. 9, Panel A). […] The nuclear factor of activated T cells (NFAT) can occupy the NF-κB binding sites in the HIV LTR, and is activated through calcium mobilization after T cell activation rather than protein kinase C activation as for NF-κB. […]

Sequence of Smyd2 (Q9NRG4 whole entry, species assumed): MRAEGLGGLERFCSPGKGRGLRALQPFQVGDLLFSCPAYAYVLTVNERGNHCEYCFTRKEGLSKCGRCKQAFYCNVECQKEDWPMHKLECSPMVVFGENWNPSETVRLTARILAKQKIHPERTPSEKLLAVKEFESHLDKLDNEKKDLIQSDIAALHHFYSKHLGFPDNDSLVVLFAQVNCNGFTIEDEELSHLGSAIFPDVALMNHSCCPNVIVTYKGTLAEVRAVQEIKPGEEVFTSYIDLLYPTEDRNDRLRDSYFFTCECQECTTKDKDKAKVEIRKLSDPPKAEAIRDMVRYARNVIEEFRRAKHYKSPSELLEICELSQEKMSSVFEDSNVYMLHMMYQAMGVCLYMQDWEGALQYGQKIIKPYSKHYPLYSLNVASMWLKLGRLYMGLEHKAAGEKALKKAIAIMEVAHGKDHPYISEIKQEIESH

Compound: N#Cc1cc(C(=O)NCCCN2CCCC2)cc(-c2ccccc2N2CCN(CCc3c[nH]c4ccccc34)CC2)c1 [AZ391]
- IC50 [1]: 62 nM

Compound: C[C@H]1CCC/C=C/[C@@H]2C[C@H](O)C[C@H]2[C@H](O)/C=C/C(=O)O1 [Brefeldin A]
- HIV-1 reactivation (HIV-GFP) ([2]; J-Lat): HIV-1 reactivation
- cellular toxicity ([3]; ER stress inducers): dose-dependent levels of cellular toxicity

Compound: Cc1cccc(CC(=O)N2CCc3c2ccc(-c2cn(C)c4ncnc(N)c24)c3F)n1 [PERK inhibitor]
- effect on TNFα-mediated HIV reactivation ([2]; J-Lat): not affected
- suppression of AS1842856-mediated HIV reactivation ([2]; J-Lat, with 1000 nM AS1842856): ~50%
- effect on AS1842856-induced HIV reactivation ([2]; J-Lat): reduced

Compound: O=C1Nc2ccc3ncsc3c2/C1=C/c1cnc[nH]1 [PKR inhibitor]
- effect on TNFα-mediated HIV reactivation ([2]; J-Lat): diminished
- effect on AS1842856-induced HIV reactivation ([2]; J-Lat): not

Compound: CC1=C(/C=C/C(C)=C/C=C/C(C)=C/C(=O)Nc2ccc(O)cc2)C(C)(C)CCC1 [fenretinide]
- HIV-1 reactivation (HIV-GFP) ([2]; J-Lat): best reactivation
- cellular toxicity ([3]; ER stress inducers): dose-dependent levels of cellular toxicity
- cellular toxicity ([3]; fenretinide 0.5 μM, alone or with ionomycin): nontoxic

Compound: C/C=C(/C)C(=O)O[C@H]1C(C)=C2[C@H]([C@@H]1OC(=O)CCCCCCC)[C@@](C)(OC(C)=O)C[C@H](OC(=O)CCC)[C@@]1(O)[C@H]2OC(=O)[C@@]1(C)O [thapsigargin]
- HIV-1 reactivation (HIV-GFP) ([2]; J-Lat): HIV-1 reactivation
- cellular toxicity ([3]; ER stress inducers): dose-dependent levels of cellular toxicity

Compound: TNFα
- time of maximal activation ([2]; J-Lat 5A8, GFP mRNA): 24 h
- GFP expression ([2]; four J-Lat clonal cell lines, as early as 24 hours): induced GFP expression
- RelA recruitment to the HIV LTR [4]: significantly enriched
